One assay deals with B. theta. In words: RNA-seq after MTX treatment. It counts as cell-based, Bacteroides thetaiotaomicron. The settings on record: MTX 100 μg/ml. The method, then:
Genomes were obtained from NCBI's GenBank Assembly database. Culture media was composed of BHI+and allowed to equilibrate in an anaerobic environment prior to use. Briefly, bacteria were cultured in BHI+at 37° C. in an anaerobic chamber. Cultures for each isolate were grown to mid-exponential (achieving an OD600˜0.5), aliquoted into triplicates, treated for 30 minutes with either DMSO or MTX 100 μg/ml, and then removed from the anaerobic chamber. […]
(§1) Total RNA was subjected to rRNA depletion using Ribo-Zero Bacterial rRNA Depletion (Illumina, catalog #: MRZB12424), following the manufacturer's protocol. […] For each sample, fastq files are available in NCBI's Sequence Read Archive (SRA), accession number PRJNA656577.
(§2) Reads were trimmed using Trimmomatic (v0.32) (Bolger, A. M., et al., (2014), Bioinformatics 30, 2114-2120), and ribosomal reads were removed using SortMeRNA (v2.1) (Kopylova, E., et al., (2012), Bioinformatics 28, 3211-3217). Reads were mapped to reference genomes using Bowtie2 (Langmead, B., and Salzberg, S. L. (2012), Nat Methods 9, 357-359) using the following options: -q, —met file, —end-to-end, —sensitive. […]

In a further assay the test system is C. asparagiforme. In words: RNA-seq after MTX treatment, with time course. It is filed as cell-based, Clostridium asparagiforme. The settings on record: MTX 100 μg/ml. The protocol: Genomes were obtained from NCBI's GenBank Assembly database. Culture media was composed of BHI+and allowed to equilibrate in an anaerobic environment prior to use. Briefly, bacteria were cultured in BHI+at 37° C. in an anaerobic chamber. Cultures for each isolate were grown to mid-exponential (achieving an OD600˜0.5), aliquoted into triplicates, treated for 30 minutes with either DMSO or MTX 100 μg/ml, and then removed from the anaerobic chamber. The mid-exponential time point was selected to facilitate comparisons across isolates, as has been done by others (O'Rourke, A., et al. (2020), Antimicrob Agents Chemother 64), since lag and stationary phases would present challenges in term of biomass (lag phase with low biomass) and differing physiology (i.e., sporulation among some isolates and not others). For C. asparagiforme, cultures were incubated for 4 and 20 hours as well and profiled. Cultures were centrifuged at 2000 rpm for 10 minutes at 4° C. to facilitate removal of supernatant, and the remaining bacterial pellet was flash-frozen in liquid nitrogen.
Each bacterial pellet was incubated with 1 ml of Tri reagent (Sigma Aldrich, catalog #: T9424) at room temperature for 10 minutes. The cell suspension was transferred into Lysing Matrix E tubes (MP Biomedicals, 116914050), and homogenized in a bead-beater (Mini-Beadbeater-24, BioSpec) for 5 minutes at room temperature. The sample was incubated with 200 μL of chloroform at room temperature for 10 minutes, followed by centrifugation at 16,000×g for 15 minutes at 4° C. Next, 500 μL of the upper aqueous phase was transferred into a new tube and 500 μL of 100% ethanol was added. To isolate RNA, PureLink RNA Mini Kit (Life Technologies, catalog #: 12183025) was used. This mixture was transferred onto a PureLink spin column and spun at >12,000×g for 30 seconds. The column was washed with 350 μl of wash buffer I as described in the PureLink manual. The column was incubated with 80 μl of PureLink DNase (Life Technologies, catalog #: 12185010) at room temperature for 15 minutes, and washed with 350 μl of wash buffer I. The column was washed with wash buffer II twice as described in the PureLink manual. Total RNA was recovered in 50 μl of RNAase-free water. A second round of off-column DNAse treatment was undertaken. The RNA was incubated with 6 μl of TURBO DNAse (Ambion, ThermoFisher, catalog #: AM2238) at 37° C. for 30 minutes. To stop the reaction, 56 μl of lysis buffer from the PureLink kit and 56 μl of 100% ethanol was added to the sample and vortexed. This suspension was transferred onto a PureLink column and washed once with 350 μl of wash buffer I and twice with 500 μl of wash buffer II. The RNA was recovered in 30 μl of RNAse-free water.
as §1, §2

The structures appear in SMILES notation.

For `CN(Cc1cnc2nc(N)nc(N)c2n1)c1ccc(C(=O)N[C@@H](CCC(=O)O)C(=O)O)cc1` [MTX, methotrexate], the “genes in the transcriptome affected” value in the assay with B. theta (30 minutes, padj<0.2, DESeq) is 83%. In the assay with B. theta (transcripts with padj<0.2), the “number of pathways enriched among differentially expressed transcripts” value was 57 pathways. In the assay with C. asparagiforme, the “number of pathways enriched” value is given as 23 pathways. Further, the “number of differentially expressed genes” value in the assay on C. asparagiforme (30 minutes, padj<0.2, DESeq) is listed as 468 genes. The “number of transcripts differentially expressed at all three timepoints” value in the assay on C. asparagiforme (30 minutes, 4 and 20 hours, padj<0.2, DESeq) is recorded as 41. Also, in the assay on C. asparagiforme (time course), the “DHFR or AICAR transformylase expression” value was “no significant differences” and the “adenylosuccinate synthase (ADSS) expression” value was “significantly upregulated”.

The values above are taken from patent publication US20220160712A1, “METHODS OF TREATING RHEUMATOID ARTHRITIS AND FOR PREDICTING THE RESPONSE TO METHOTREXATE” (CHAN ZUCKERBERG BIOHUB, INC., priority 2020, published 2022).
